Square brackets hold non-standard residues; d marks the D form. Ends that are not written are not given here. pS = N[C@@H](COP(=O)(O)O)C(=O)O; Ahx = NCCCCCC(=O)O
Legend:
[1] = tested on: Human melanoma A375 cells; experiment: Human melanoma A375 subcutaneous xenograft in BALB/c nude mice, intratumoral injection of polypeptides; assay type: in vivo
Experimental: Human melanoma A375 cells in the logarithmic phase of growth were cultured under sterile conditions to prepare a 5×10^6/200 μL cell suspension, and 200 μL cell suspension was separately injected into BALB/c nude mice subcutaneously. An electronic digital vernier caliper was used to measure the long-axis and short-axis diameters of the transplanted tumors, and the formula: Tumor Volume (TV)=½×Long-axis Diameter×Short-axis Diameter^2 was used to calculate the volume of the tumors. The mice were randomly grouped when the tumor volume reach about 100 mm^3.
Polypeptides JWA-1, JWA-2, JWA-3, and an equivalent peptide blend (Pep) of the three polypeptides were injected into the tumors of the various groups of mice respectively, and the doses used were 25 mg/kg and 10 mg/kg, respectively; the negative control group was injected with an equal amount of sterile phosphate-buffered saline (PBS). The polypeptide injection groups and the control group were administered on alternate days (48 hrs interval) by injection for 5 times; and the body weight of the mice and their tumor diameters were measured at each administration. After completion of the experiment the mice were sacrificed after anesthesia, tumors were separated from the bodies and their weight were measured.
In this example, the method for dorsal subcutaneous tumor bearing of BALB/c nude mice by inoculation of A375 cells is the same as Example 2.
The aforementioned BALB/c nude mice inoculated with human melanoma A375 cells by intratumoral injection were separately treated using polypeptide JWA-1 of low dose (5 mg/kg), medium dose (10 mg/kg) and high dose (15 mg/kg); at the same time, a sterile PBS negative control group and a 10 mg/kg non-pep injection group (referred to simply as “non-pep group”, the polypeptide sequence used was SEQ ID NO: 14; […]-EEMQR, the N-terminus thereof being acetylated and the C-terminus thereof amidated) were established. The establishment of the non-pep group was for observing whether JWA polypeptides have any specific anti-tumor effect.
To verify the impact of phosphorylation of S in polypeptide JWA-1 on the anti-tumor effect thereof, a non-phosphorylated polypeptide JWA-7 injection group (10 mg/kg) was added in the aforementioned experiment.
(§1) The various groups were administered by intratumoral injection on alternate days for 5 times consecutively; and the body weight of the mice and their tumor diameters were measured at each administration. After completion of the experiment the mice were sacrificed after anesthesia, tumors were separated from the bodies and the tumor weights were measured.
The BALB/c nude mice inoculated with human melanoma A375 cells were separately treated using 10 mg/kg polypeptides JWA-1, JWA-4, JWA-5, and JWA-6; at the same time, a 10 mg/kg non-pep injection group (referred to simply as “non-pep group”, the polypeptide sequence used was the same as Example 3) was established.
The mice with transplanted tumors in this example were the same as Example 2, and the experimental method used therein was also the same as Example 2. The various polypeptides were administered by intratumoral injection at a dose of 10 mg/kg, and a non-pep injection group (referred to simply as “non-pep group”, the polypeptide sequence used was the same as Example 3) was established.

[2] = tested on: human melanoma A375 cells; experiment: Human melanoma A375 subcutaneous xenograft in NOD/SCID mice, intraperitoneal injection of polypeptides; assay type: in vivo; details: Example 5, alternate days, 5 times
Excerpt: The polypeptide designed and synthesized in this example was JWA-6+RGD whose sequence was SEQ ID NO: 7, i.e. 6-aminocaproic acid-FPGSDRF-GGGG-RGD, wherein amino acid S was phosphorylated. In addition, the N-terminus of the polypeptide sequence was acetylated and the C-terminus thereof was amidated during synthesis to prevent rapid degradation of the polypeptide. In this example, non-obese diabetic/severe combined immunodeficiency (NOD/SCID) mice were chosen for tumor-bearing model and the method for dorsal subcutaneous tumor bearing by inoculation of human melanoma A375 cells is the same as Example 2. The mice were randomly divided into four treatment groups after the tumors grew to a volume of about 100 mm^3. […]
as §1, with “Then, 50 mg/kg polypeptide JWA-6, 10 mg/kg polypeptide JWA-6+RGD, 50 mg/kg polypeptide JWA-6+RGD, and 50 mg/kg non-pep (the polypeptide sequence used was the same as Example 3) were injected intraperitoneally. The” for “The”, “with” for “by intratumoral”, “weights” for “weights were”
Thereafter, the tumor bearing mice were obtained using the foregoing method of this example and divided into seven injection groups which were intraperitoneally injected with polypeptides JWA-6+RGD, JWA-6+RGD0, JWA-6+RGD1, JWA-6+RGD3, JWA-6+RGD7, JWA-6+RGD10, and non-pep (the polypeptide sequence used was the same as Example 3) at a dose of 50 mg/kg. The various groups were administered by intraperitoneal injection on alternate days for 5 times consecutively; and the body weight of the mice and their tumor diameters were measured at each administration. The day of first administration was taken as the first day, and the experiment was stopped on the twelfth day when the mice were sacrificed after anesthesia, and tumors were separated from the bodies and the tumor weights were measured.

SGC7901 cells = experiment: Western Blot of PARP-1 in SGC7901 cells; assay type: cell-based; details: 24 hrs
Experimental: The combined effect of ATO and polypeptide JWA-6 on the self-destruction of protein expression was also determined A375 cells in the logarithmic phase of growth were conventionally digested and 5×10^5 cells were inoculated evenly in a 60 mm cell culture dish, and different doses of ATO were used to individually treat the cells for 24 hrs, or different doses of ATO in combination with different doses of polypeptide JWA-6 were used to treat the cells for 24 hrs, after which 0.18 mL of RIPA lysis buffer containing 0.5% phenylmethanesulfonyl fluoride (PMSF) was added to extract protein. After centrifugation at 12000×g for 15 minutes, the supernatant was taken, protein concentration was examined. Based on the molecular weight measured, a polyacrylamide gel having a suitable concentration was chosen for protein electrophoresis where each well was added with […] of protein, and the conditions for electrolysis were 60 V, 30 minutes and 90 V, 1-1.5 hrs. After completion of the electrolysis, semi-dry transfer was performed to transfer the protein from the gel onto a polyvinylidene difluoride (PVDF) membrane. After completion of the transfer, the membrane was blocked with 5% skim milk at room temperature for 1-2 hrs. Then, the membrane was washed 3 times (each lasting 5 minutes) using Tris-buffered Saline with Tween (TBST) containing 0.1% Tween-20, and incubation of the corresponding antibody was performed overnight at 4° C. On the next day, membrane was washed 3 times (each lasting 5 minutes) using Tris-buffered Saline with Tween (TBST) containing 0.1% Tween-20; incubation of secondary antibody was performed at room temperature for 1-2 hrs; and again membrane was washed 8 times (each lasting 5 minutes) using Tris-buffered Saline with Tween (TBST) containing 0.1% Tween-20. The membrane was added with enhanced chemiluminescence (ECL) liquid and exposed. […]

A375 cells [3] = experiment: Western Blot of apoptosis-related molecules (PARP-1, caspase-3) in A375 cells; assay type: cell-based, human; details: A375, 24 hrs
Experimental: The combined effect of ATO and polypeptide JWA-6 on the self-destruction of protein expression was also determined A375 cells in the logarithmic phase of growth were conventionally digested and 5×10^5 cells were inoculated evenly in a 60 mm cell culture dish, and different doses of ATO were used to individually treat the cells for 24 hrs, or different doses of ATO in combination with different doses of polypeptide JWA-6 were used to treat the cells for 24 hrs, after which 0.18 mL of RIPA lysis buffer containing 0.5% phenylmethanesulfonyl fluoride (PMSF) was added to extract protein. After centrifugation at 12000×g for 15 minutes, the supernatant was taken, protein concentration was examined. Based on the molecular weight measured, a polyacrylamide gel having a suitable concentration was chosen for protein electrophoresis where each well was added with […] of protein, and the conditions for electrolysis were 60 V, 30 minutes and 90 V, 1-1.5 hrs. After completion of the electrolysis, semi-dry transfer was performed to transfer the protein from the gel onto a polyvinylidene difluoride (PVDF) membrane. After completion of the transfer, the membrane was blocked with 5% skim milk at room temperature for 1-2 hrs. Then, the membrane was washed 3 times (each lasting 5 minutes) using Tris-buffered Saline with Tween (TBST) containing 0.1% Tween-20, and incubation of the corresponding antibody was performed overnight at 4° C. On the next day, membrane was washed 3 times (each lasting 5 minutes) using Tris-buffered Saline with Tween (TBST) containing 0.1% Tween-20; incubation of secondary antibody was performed at room temperature for 1-2 hrs; and again membrane was washed 8 times (each lasting 5 minutes) using Tris-buffered Saline with Tween (TBST) containing 0.1% Tween-20. The membrane was added with enhanced chemiluminescence (ECL) liquid and exposed.
Polypeptide CPP-JWA-6 at a dose of 20 μM, 50 μM was applied individually and applied in combination with ATO (5 μM) on A375 cells (as shown in FIG. 40) and SGC7901 cells (as shown in FIG. 41) for 24 hrs before protein was extracted, and the Western Blot method of Example 7 was used to examine the changes in apoptosis-related molecules.

[4] = tested on: Human Melanoma A375 Cells; experiment: Cell proliferation with CCK8 reagent, A375 cells; assay type: cell-based; details: 0-50 μM, 24, 48 and 72 hrs, in comparison with the control group
Experimental: (§2) B16F10 or A375 cells in the logarithmic phase of growth were trypsinized and seeded in a 96-well plate (5×10^3 cells/well), and were treated with different doses (0 μM, 5 μM, 10 μM, 25 μM, 50 μM) of polypeptide JWA-1, JWA-5, JWA-6 or non-pep (the polypeptide sequence used was the same as Example 3) for 24 hrs, 48 hrs and 72 hrs, respectively. The original culture medium was removed from the 96 wells at the indicated time and cell proliferation was determined with CCK8 reagent according to the manufacturer's instructions. Four duplicate samples were taken from each group and the experiments were repeated for three times.

A375 cells [5] = experiment: Cytoactivity of A375 cells treated with ATO alone or with polypeptides in combination with ATO; assay type: cell-based, human; details: polypeptide 50-500 μM in combination with ATO 0.5-5 μM, 24 and 48 hrs
Experimental: Firstly, the dose and time for treatment of A375 cells with ATO were determined. A375 cells in the logarithmic phase of growth were conventionally digested and seeded in a 96-well plate (5×10^3 cells/well), and different doses (5 μM, 10 μM, 25 μM, 50 μM) of ATO were used to treat the cells for 24 hrs and 48 hrs after cell attachment. It was discovered that the activity of A375 cells was reduced by 40% after 24 hrs of treatment with 5 μM ATO (as shown in FIG. 24), and that the cell growth inhibition rate was approximately 100% after 48 hrs of treatment with different doses of ATO (as shown in FIG. 25). Therefore, ATO with a concentration smaller than or equal to 5 μM was chosen to treat the cells for 24 hrs for subsequent reference of dose and time for combined medication.

[6] = tested on: Mouse Melanoma B16F10 Cells; experiment: Cell proliferation with CCK8 reagent, B16F10 cells; assay type: cell-based; details: 0-50 μM, 24, 48 and 72 hrs, in comparison with the control group
Experimental: as §2

[7] = Example 4, 10 mg/kg intratumoral, alternate days, 5 times, compared among polypeptides
[8] = 20, 50 μM polypeptide combined with ATO 5 μM, in comparison with ATO alone
[9] = polypeptide alone at a dose not exceeding 50 μM
[10] = Example 3, 10 mg/kg intratumoral, alternate days, 5 times, 10 mg/kg

In the case of 6-aminocaproic acid-GSD [JWA-4], the tumor inhibition effect [1, 7] is reported as “significantly worse than that of polypeptide JWA-6”.

In the case of “6-aminocaproic acid-FPGSDRF-GGGG-RGD (Ac-[Ahx]FPG[pS]DRFGGGGRGD-NH2; SMILES CC(=O)NCCCCCC(=O)N[C@@H](Cc1ccccc1)C(=O)N1CCC[C@H]1C(=O)NCC(=O)N[C@@H](COP(=O)(O)O)C(=O)N[C@@H](CC(=O)O)C(=O)N[C@@H](CCCNC(=N)N)C(=O)N[C@@H](Cc1ccccc1)C(=O)NCC(=O)NCC(=O)NCC(=O)NCC(=O)N[C@@H](CCCNC(=N)N)C(=O)NCC(=O)N[C@@H](CC(=O)O)C(N)=O) [JWA-6+RGD]”, the tumor inhibition effect ([2]; 10 mg/kg intraperitoneal) is reported as “a certain degree of tumor inhibition effect” and the tumor inhibition effect ([2]; 50 mg/kg intraperitoneal) is reported as “better tumor inhibition effect”.

In the case of “6-aminoacetic acid-EEMQR [non-pep, reference compound]”, the tumor inhibition effect ([1]; Example 3, 10 mg/kg intratumoral, alternate days, 5 times) is reported as “no tumor inhibition effect”.

For “6-aminocaproic acid-(R)9—FPGSDRF ([Ahx]RRRRRRRRRFPG[pS]DRF) [CPP-JWA-6]”, the PARP-1 spliceosome (SGC7901 cells; [8]) was “significantly increased”, the “changes in the expression of PARP-1” value (SGC7901 cells; [9]) was “will not cause any changes” and the PARP-1 spliceosome (A375 cells [3]; [8]) was “significantly increased”. For the same substance, the caspase-3 spliceosome (A375 cells [3]; [8]) was “significantly increased” and the “changes in the expression of PARP-1” value (A375 cells [3]; [9]) was “will not cause any changes”.

For “6-aminocaproic acid-FFPGSDRFA [JWA-1] ([Ahx]FFPG[pS]DRFA)”, the “inhibition effect on subcutaneous tumor growth in nude mice” value ([1]; Example 2, 10 mg/kg intratumoral, alternate days, 5 times, in comparison with PBS control group) was “more significant”, the “tumor weight to body weight ratio” value ([1]; Example 2, 10 mg/kg intratumoral, alternate days, 5 times, in comparison with PBS control group, P<0.05) was “smaller” and the tumor inhibition effect [1, 10] was “significant tumor inhibition effect”. For the same substance, the “dose-effect relation of tumor inhibition” value ([1]; Example 3, 5, 10 and 15 mg/kg intratumoral) was “no trend of enhanced effect was detected along with dose increase”, the “inhibition effect on A375 cells” value [4] was “no inhibition effect” and the “cytoactivity of A375 cells, combined use with ATO” value (A375 cells [5]) was “no synergistic effect”. For the same substance, the “inhibition effect on B16F10 cells” value [6] was “no inhibition effect”.

For “6-aminocaproic acid-FFPGSDRFA [JWA-7] ([Ahx]FFPGSDRFA)”, the tumor inhibition effect [1, 10] was “no tumor inhibition effect”.

With “6-aminocaproic acid-PGSDR ([Ahx]PG[pS]DR) [JWA-5]” the tumor inhibition effect [1, 7] was “significantly worse than that of polypeptide JWA-6”, the “inhibition effect on A375 cells” value [4] was “no inhibition effect” and the “inhibition effect on B16F10 cells” value [6] was “no inhibition effect”.
